Test results: PubChem BioAssay AID248 (DTP/NCI, 2004)
“And” between values parts separate entries of the source, which are not always exact repeats. Equal entries are not always repeated. Inconclusive results and toxic doses are left out.

Tested on: L1210 leukemia ip in BDF1 mice, survival T/C
Experiment: NCI In Vivo Anticancer Drug Screen. Data for tumor model L1210 Leukemia (intraperitoneal) in B6D2F1 (BDF1) mice
Details: endpoint: mean survival time, higher = longer survival
Procedure, shortened: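 Transplanted-tumor mice were given test agent; controls received vehicle only. Survival readings from the two groups were divided (treated over control).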

[1] = dose: 100.0 mg/kg/injection, schedule: Q01DX009 (ip), vehicle: saline
[2] = dose: 200.0 mg/kg/injection, schedule: Q01DX009 (ip), vehicle: saline
[3] = dose: 400.0 mg/kg/injection, schedule: Q01DX009 (ip), vehicle: saline
[4] = dose: 100.0 mg/kg/injection, schedule: Q04DX003 (ip), vehicle: Klucel (hydroxypropylcellulose) (HPC)
[5] = dose: 200.0 mg/kg/injection, schedule: Q04DX003 (ip), vehicle: Klucel (hydroxypropylcellulose) (HPC)
[6] = dose: 100.0 mg/kg/injection, schedule: Q04DX003 (ip), vehicle: saline with Tween-80
[7] = dose: 200.0 mg/kg/injection, schedule: Q04DX003 (ip), vehicle: saline with Tween-80
[8] = dose: 400.0 mg/kg/injection, schedule: Q04DX003 (ip), vehicle: saline with Tween-80
[9] = dose: 100.0 mg/kg/injection, schedule: Q01DX001 (ip), vehicle: Klucel (hydroxypropylcellulose) (HPC)
[10] = dose: 100.0 mg/kg/injection, schedule: Q01DX009 (ip), vehicle: Klucel (hydroxypropylcellulose) (HPC)
[11] = dose: 200.0 mg/kg/injection, schedule: Q01DX001 (ip), vehicle: Klucel (hydroxypropylcellulose) (HPC)
[12] = dose: 200.0 mg/kg/injection, schedule: Q01DX009 (ip), vehicle: Klucel (hydroxypropylcellulose) (HPC)
[13] = dose: 400.0 mg/kg/injection, schedule: Q01DX001 (ip), vehicle: Klucel (hydroxypropylcellulose) (HPC)
[14] = dose: 400.0 mg/kg/injection, schedule: Q01DX009 (ip), vehicle: Klucel (hydroxypropylcellulose) (HPC)

In the case of O=NN(CCF)C(=O)NC1CC2CCC1C2 (stereo not given), the T/C (dose: 3.12 mg/kg/injection, schedule: Q01DX001 (ip), vehicle: other) is reported as 108 % of control, the T/C (dose: 5.7 mg/kg/injection, schedule: Q01DX001 (ip), vehicle: other) is reported as 104 % of control and the T/C (dose: 6.25 mg/kg/injection, schedule: Q01DX001 (ip), vehicle: other) is reported as 118 % of control. For the same compound, the T/C (dose: 12.5 mg/kg/injection, schedule: Q01DX001 (ip), vehicle: other) was 150 % of control, the T/C (dose: 23.0 mg/kg/injection, schedule: Q01DX001 (ip), vehicle: other) was 180 % of control and the T/C (dose: 25.0 mg/kg/injection, schedule: Q01DX001 (ip), vehicle: other) was 180 % of control. The T/C (dose: 37.0 mg/kg/injection, schedule: Q01DX001 (ip), vehicle: other) was 308 % of control, the T/C (dose: 37.5 mg/kg/injection, schedule: Q01DX001 (ip), vehicle: other) was 361 % of control and the T/C (dose: 46.0 mg/kg/injection, schedule: Q01DX001 (ip), vehicle: other) was 310 % of control. For the same compound, the T/C (dose: 56.0 mg/kg/injection, schedule: Q01DX001 (ip), vehicle: other) was 348 % of control.
With CCOC1=C(C)C(=O)C1C (stereo not given) the T/C [1] was 111 % of control, the T/C [2] was 101 % of control and the T/C [3] was 113 % of control.
CCCOC(=O)c1ccc(NCC(C)(C)[N+](=O)[O-])cc1 was tested, and the T/C [1] was 95 % of control, the T/C [2] was 117 % of control and the T/C [3] was 91 % of control.
CC(=O)Nc1cccc2nsnc12 was tested, and the T/C [4] was 100 % of control and the T/C [5] was 93 % of control.
For CCN(CC)CC(=O)NCC(CCN1CCCCC1)(Cc1cccc2ccccc12)C(C)C (stereo not given), the T/C (dose: 12.5 mg/kg/injection, schedule: Q04DX003 (ip), vehicle: saline) was 106 % of control, the T/C (dose: 25.0 mg/kg/injection, schedule: Q04DX003 (ip), vehicle: saline) was 98 % of control and the T/C (dose: 50.0 mg/kg/injection, schedule: Q04DX003 (ip), vehicle: saline) was 97 % of control.
CCP(CC)c1ccccc1 was tested, and the T/C (dose: 100.0 mg/kg/injection, schedule: Q01DX009 (sc), vehicle: olive oil, sesame oil, peanut oil) was 100 % of control, the T/C (dose: 100.0 mg/kg/injection, schedule: Q04DX003 (sc), vehicle: olive oil, sesame oil, peanut oil) was 98 % of control and the T/C (dose: 200.0 mg/kg/injection, schedule: Q01DX009 (sc), vehicle: olive oil, sesame oil, peanut oil) was 102 % of control. The T/C (dose: 200.0 mg/kg/injection, schedule: Q04DX003 (sc), vehicle: olive oil, sesame oil, peanut oil) was 96 % of control, the T/C (dose: 400.0 mg/kg/injection, schedule: Q01DX009 (sc), vehicle: olive oil, sesame oil, peanut oil) was 107 % of control and the T/C (dose: 400.0 mg/kg/injection, schedule: Q04DX003 (sc), vehicle: olive oil, sesame oil, peanut oil) was 98 % of control.
In the case of O=C(Nc1cccc(C(=O)Nc2cccc(C3=NCCN3)c2)c1)Nc1cccc(C(=O)Nc2cccc(C3=NCCN3)c2)c1, the T/C (dose: 15.0 mg/kg/injection, schedule: Q01DX Z (ip), vehicle: methylcellulose (MC)) is reported as 96 % of control, the T/C (dose: 30.0 mg/kg/injection, schedule: Q01DX Z (ip), vehicle: methylcellulose (MC)) is reported as 96 % of control and the T/C (dose: 60.0 mg/kg/injection, schedule: Q01DX Z (ip), vehicle: methylcellulose (MC)) is reported as 94 % of control. For the same compound, the T/C (dose: 120.0 mg/kg/injection, schedule: Q01DX Z (ip), vehicle: methylcellulose (MC)) was 98 % of control, the T/C (dose: 125.0 mg/kg/injection, schedule: Q01DX Z (ip), vehicle: carboxymethylcellulose (CMC)) was 110 % of control and the T/C (dose: 250.0 mg/kg/injection, schedule: Q01DX Z (ip), vehicle: carboxymethylcellulose (CMC)) was 105 % of control. The T/C (dose: 500.0 mg/kg/injection, schedule: Q01DX Z (ip), vehicle: carboxymethylcellulose (CMC)) was 96 % of control.
With CCC(C)C(C=NCC(CCN1CCOCC1)(c1ccc2ccccc2c1)C(C)CC)(CCN1CCOCC1)c1ccc2ccccc2c1 (stereo not given) the T/C (dose: 50.0 mg/kg/injection, schedule: Q04DX002 (ip), vehicle: Klucel (hydroxypropylcellulose) (HPC)) was 100 % of control, the T/C (dose: 100.0 mg/kg/injection, schedule: Q04DX002 (ip), vehicle: Klucel (hydroxypropylcellulose) (HPC)) was 92 % of control and the T/C (dose: 200.0 mg/kg/injection, schedule: Q04DX002 (ip), vehicle: Klucel (hydroxypropylcellulose) (HPC)) was 92 % of control.
CC(C)OC(=S)SSc1nc2ccccc2s1 was tested, and the T/C (dose: 50.0 mg/kg/injection, schedule: Q01DX009 (ip), vehicle: saline with Tween-80) was 103 % of control, the T/C (dose: 100.0 mg/kg/injection, schedule: Q01DX009 (ip), vehicle: saline with Tween-80) was 92 % of control and the T/C [6] was 90 % of control. The T/C (dose: 200.0 mg/kg/injection, schedule: Q01DX009 (ip), vehicle: saline with Tween-80) was 96 % of control and the T/C [7] was 96 % of control.
With Nc1nc([Se])c2ncn(C3OC(CO)C(O)C3O)c2n1 (stereo not given) the T/C (dose: 10.0 mg/kg/injection, schedule: Q01DX009 (ip), vehicle: saline) was 179 % of control, the T/C (dose: 12.5 mg/kg/injection, schedule: Q01DX009 (ip), vehicle: saline) was 208 % of control and 213 % of control and the T/C (dose: 20.0 mg/kg/injection, schedule: Q01DX009 (ip), vehicle: saline) was 182 % of control. For the same compound, the T/C (dose: 25.0 mg/kg/injection, schedule: Q01DX009 (ip), vehicle: saline) was 201 % of control and 229 % of control and the T/C (dose: 50.0 mg/kg/injection, schedule: Q01DX009 (ip), vehicle: saline) was 91 % of control.
With CN(C)c1ccc(SCC(=O)c2ccccc2)cc1 the T/C [6] was 93 % of control, the T/C [7] was 101 % of control and the T/C [8] was 95 % of control.
For O=C(CCCCCCCCC(=O)c1ccc2ccccc2c1O)c1ccc2ccccc2c1O, the T/C [9] was 87 % of control, the T/C [10] was 94 % of control and the T/C [11] was 89 % of control. The T/C [12] was 91 % of control, the T/C [13] was 105 % of control and the T/C [14] was 96 % of control.
For CCCCC(C)O[Si](C)C1(C)CCCCC1 (stereo not given), the T/C [6] was 94 % of control, the T/C [7] was 95 % of control and the T/C [8] was 106 % of control.
In the case of CN(C)CCCNC(=S)C(=S)NCCCN(C)C, the T/C (dose: 50.0 mg/kg/injection, schedule: Q01DX009 (ip), vehicle: Klucel (hydroxypropylcellulose) (HPC)) is reported as 105 % of control, the T/C [10] is reported as 105 % of control and the T/C [4] is reported as 94 % of control. The T/C [12] was 96 % of control and the T/C [5] was 94 % of control.
For CCOC(=O)CCC1CCCC1CC(=O)OCC (stereo not given), the T/C (dose: 100.0 mg/kg/injection, schedule: Q01DX001 (ip), vehicle: acetone) was 97 % of control, the T/C (dose: 200.0 mg/kg/injection, schedule: Q01DX001 (ip), vehicle: acetone) was 101 % of control and the T/C (dose: 400.0 mg/kg/injection, schedule: Q01DX001 (ip), vehicle: acetone) was 86 % of control.
For c1ccc(-c2nnn(-c3ccccc3)n2)cc1, the T/C [6] was 94 % of control, the T/C [7] was 93 % of control and the T/C [8] was 98 % of control.
With CC(=O)CCC(=O)OCCOC(=O)CCC(C)=O the T/C [1] was 98 % of control and 105 % of control, the T/C (dose: 100.0 mg/kg/injection, schedule: Q04DX003 (ip), vehicle: saline) was 96 % of control and 104 % of control and the T/C [2] was 93 % of control and 95 % of control. For the same compound, the T/C (dose: 200.0 mg/kg/injection, schedule: Q04DX003 (ip), vehicle: saline) was 100 % of control, the T/C [3] was 98 % of control and 104 % of control and the T/C (dose: 400.0 mg/kg/injection, schedule: Q04DX003 (ip), vehicle: saline) was 100 % of control and 106 % of control.
In the case of N=C1SC(c2ccccc2)c2ccccc21 (stereo not given), the T/C [9] is reported as 98 % of control, the T/C [11] is reported as 93 % of control and the T/C [13] is reported as 95 % of control.
With CC1CCCN(C(=O)Nc2cccc(Cl)c2Cl)C1 (stereo not given) the T/C [10] was 87 % of control, the T/C [12] was 92 % of control and the T/C [14] was 96 % of control.
With CCCCCCc1cc(N=Nc2ccc(S(N)(=O)=O)cc2)c(O)cc1O the T/C (dose: 100.0 mg/kg/injection, schedule: Q01DX001 (ip), vehicle: saline) was 97 % of control, the T/C (dose: 200.0 mg/kg/injection, schedule: Q01DX001 (ip), vehicle: saline) was 102 % of control and the T/C (dose: 400.0 mg/kg/injection, schedule: Q01DX001 (ip), vehicle: saline) was 96 % of control.
In the case of O=C1C(=C(C(F)(F)F)C(F)(F)F)C2CCC1C2 (stereo not given), the T/C (dose: 6.25 mg/kg/injection, schedule: Q01DX009 (ip), vehicle: saline with Tween-80) is reported as 93 % of control, the T/C (dose: 6.25 mg/kg/injection, schedule: Q04DX003 (ip), vehicle: saline with Tween-80) is reported as 114 % of control and the T/C (dose: 12.5 mg/kg/injection, schedule: Q01DX009 (ip), vehicle: saline with Tween-80) is reported as 93 % of control. The T/C (dose: 12.5 mg/kg/injection, schedule: Q04DX003 (ip), vehicle: saline with Tween-80) was 92 % of control and the T/C (dose: 25.0 mg/kg/injection, schedule: Q04DX003 (ip), vehicle: saline with Tween-80) was 96 % of control.
